The values that follow come from patent publication US6521446B2, “Biosensor” (Duke University, priority 1997, dated 2003).

Assay [1] can be described thus: Glucose binding, titration followed by fluorescence change of the conjugated fluorophore. The procedure:
(§1) Measurement of Glucose and Galactose Binding. Sugar binding was determined by measuring changes in fluorescence of the conjugated fluorophores on a SLM-Aminco-Bowman series-2 fluorimeter at 25±1° C. Glucose or galactose (Sigma) was titrated into a 50 nM conjugated protein solution in 0.1 M NaCl, 50 mM phosphate (pH 7.0), which was continuously mixed with a magnetic stirrer. For titrations, the excitation and emission slit widths were set to 4 and 16 nm, respectively (IANBD:λex=469 nm, λcm=540 nm; acrylodan: λex=392 nm, λem=520 nm). Under these conditions the instrument noise was <1% of the fluorescence signal observed in saturating solutions of glucose. Experimentally observed binding curves were fit to a binding isotherm:
(§2) where ΔF is the change in fluorescence, ΔFmax the fluorescence change at saturating concentrations of ligand, Kd the binding constant, and S the concentration of ligand.

The nature of assay [2]: Sugar binding Kd of mutant proteins: L-Arabinose. As to conditions: Table 2, binding-site mutants. The procedure: (§3) Measurement of Glucose and Galactose Binding. Sugar binding was determined by measuring changes in fluorescence of the conjugated fluorophores on a SLM-Aminco-Bowman series-2 fluorimeter at 25±1° C. […] For titrations, the excitation and emission slit widths were set to 4 and 16 nm, respectively (IANBD:λex=469 nm, λcm=540 nm; acrylodan: λex=392 nm, λem=520 nm). Under these conditions the instrument noise was <1% of the fluorescence signal observed in saturating solutions of glucose. Experimentally observed binding curves were fit to a binding isotherm:
as §2
(§4) (Primary binding surface in E. coli GBP: Asn14, Asn91, His152, Asp154, Arg158, Asn211, Asp236, Asn256; secondary binding surface in E coli GBP: Tyr10, Phe16, Met17, Asn66, Ser112, Ser115, Trp183, Asn210, Met214, Gln261, Tyr295). In order to change the binding constant for glucose, residues in both surfaces have been systematically mutated, either singly or in pairs. The Asp154Ala, Trp183Ala (D154A+W183A) double mutant has a binding constant of 7.2 mM. The dynamic range is thus matched for operating in physiologically relevant glucose concentration ranges.

Assay [3] in a line: Sugar binding Kd of mutant proteins: D-Mannose. As to conditions: Table 2, binding-site mutants. The procedure:
as §3, §2, §4

A short description of assay [4]: Galactose binding, titration followed by fluorescence change of the conjugated fluorophore. The procedure: as §1, §2
A short description of assay [5]: Sugar binding Kd of mutant proteins: D-Fucose. As to conditions: Table 2, binding-site mutants. The procedure: as §3, §2, §4
Assay [6] is described as follows: Sugar binding Kd of mutant proteins: D-Fructose. As to conditions: Table 2, binding-site mutants. The procedure: as §3, §2, §4
Assay [7] is described as follows: Fluorescence of glucose-saturated GBP conjugate relative to apoprotein. The format is binding. The procedure: as §1, with “isotherm: […]” for “isotherm:”
A short description of assay [8]: Sugar binding Kd of mutant proteins: Maltose. As to conditions: Table 2, binding-site mutants. As for the experimental part:
as §3, §2, §4

Assay [9] can be described thus: Sugar binding Kd of mutant proteins: D-Xylose. As to conditions: Table 2, binding-site mutants. As for the experimental part: as §3, §2, §4
Assay [10] can be described thus: Sugar binding Kd of mutant proteins: Lactose. As to conditions: Table 2, binding-site mutants. As for the experimental part:
as §3, §2, §4

The mark [11] stands for this setting: Table 2, binding-site mutants, read-out: Kd, D-Glucose.
Where [12] appears, read: Table 2, binding-site mutants, read-out: Kd, D-Galactose.
The mark [13] stands for this setting: IANBD conjugate, read-out: Kd(Glc).
[14] abbreviates: acrylodan conjugate, read-out: Kd(Glc).
Setting [15] is: IANBD conjugate, read-out: Kd(Gal).
Setting [16] is: acrylodan conjugate, read-out: Kd(Gal).
The mark [17] stands for this setting: IANBD conjugate, relative to wild-type.
The mark [18] stands for this setting: mutants in the allosterically signaling construct 255C, read-out: binding constant for glucose.

“D14A: E. coli GBP binding-site mutant at position 14”: the Kd in assay [1] (setting [11]) is 290 µM; in [2], 7250 µM; in [3], 26000 µM; in [4] (setting [12]), 390 µM.

For “D154A W183A: E. coli GBP double mutant in a 255C background”, the Kd in assay [1] (255C background, read-out: binding constant) is 7200 µM; in assay [1] (setting [11]), 7200 µM; in assay [1] (glucose, read-out: binding constant), 7200 µM.

On to D154A: E. coli GBP binding-site mutant, for which the Kd came to 11.5 µM in [1] (setting [11]); 2200 µM in assay [2]; 140 µM in assay [5]; 24000 µM in [6]; 1550 µM in assay [3]; 41 µM in assay [4] (setting [12]).

Consider “D257C: E. coli GBP single cysteine mutant in the hinge region, fluorophore conjugated”, for which the Kd in assay [1] (setting [13]) is 0.8 µM; in [1] (setting [14]), 0.5 µM; in [4] (setting [15]), 1.5 µM; in [4] (setting [16]), 0.5 µM. The entries for the “R: ratio of fluorescence of fully saturated GBP (10 mM glucose) to apoprotein” value (shortened to “R: ratio”) in assay [7] (IANBD conjugate) and in assay [7] (acrylodan conjugate) were 1.6 and 0.8, respectively.

Regarding F16Y: E. coli GBP binding-site mutant, the Kd is 500 µM in assay [1] (setting [11]), 6000 µM in assay [5] and 1160 µM in assay [4] (setting [12]).

Consider “H152C: E. coli GBP single cysteine mutant in the binding pocket, nonallosteric reporter site, conjugated to IANBD or acrylodan”, for which the “increase in the binding constant for glucose” value in assay [1] (setting [17]) is listed as approximately 100 fold. Further, the figures for the Kd in assay [1] (setting [13]) and in assay [4] (setting [15]) were 20 µM and 160 µM, respectively. Further, the “increase in the binding constant for galactose” value in assay [4] (setting [17]) was approximately 500 fold. For the same substance, in [7] (IANBD conjugate), the increase in fluorescence worked out at 4 fold. Moreover, the “R: ratio” value in assay [7] (IANBD conjugate) turned out to be 4.0; in assay [7] (acrylodan conjugate), 1.0.

For “L255C: E. coli GBP single cysteine mutant in the hinge region of the allosteric flap; allosterically signaling construct 255C”, the Kd is 0.32 µM in assay [1] (setting [13]); 0.43 µM in [1] (setting [14]); 0.2 µM in assay [1] (setting [18]); 0.49 µM in [4] (setting [15]); 0.62 µM in [4] (setting [16]). The “R: ratio” value is listed as 0.8 in assay [7] (IANBD conjugate) and 0.5 in assay [7] (acrylodan conjugate).

Regarding “N15C: E. coli GBP single cysteine mutant in the binding pocket, nonallosteric reporter site, conjugated to IANBD or acrylodan”, the Kd in [1] (setting [13]) turned out to be 0.13 µM; in assay [1] (setting [14]), 0.17 µM; in [4] (setting [15]), 0.1 µM; in assay [4] (setting [16]) it was 0.15 µM. Besides, the “effect on the sugar binding constants” value in [1] (acrylodan and IANBD conjugates at the 15 position) is given as “do not greatly perturb the sugar binding constants”. The “R: ratio” value in assay [7] (IANBD conjugate) is reported as 0.8; in assay [7] (acrylodan conjugate), 0.7.

As to N91A: E. coli GBP binding-site mutant, the Kd in [1] (setting [11]) was 150 µM; in assay [5], 1230 µM; in assay [3], 16000 µM; in [4] (setting [12]) it was 1080 µM.

With “P294C: E. coli GBP single cysteine mutant in the hinge region, fluorophore conjugated”, the Kd in assay [1] (setting [14]) and in [4] (setting [16]) was 1 µM in each case. Also, the figures for the “R: ratio” value in [7] (IANBD conjugate) and in assay [7] (acrylodan conjugate) were 1.0 and 0.9, respectively.

For “S112A S115A: E. coli GBP binding-site double mutant”, the Kd in [1] (setting [11]) turned out to be 9 µM; in assay [2] it was 1100 µM; in [3], 1400 µM; in assay [4] (setting [12]), 33 µM; in assay [8], 3300 µM.

Take S112A: E. coli GBP binding-site mutant: the Kd was found to be 7.2 µM in assay [1] (setting [11]); 870 µM in assay [2]; 4200 µM in [9]; 15000 µM in assay [6]; 670 µM in [3]; 24.5 µM in assay [4] (setting [12]).

Take “V296C: E. coli GBP single cysteine mutant in the hinge region, fluorophore conjugated”: the Kd in [1] (setting [13]) amounted to 0.1 µM; in assay [4] (setting [15]), 0.3 µM. The “R: ratio” value in assay [7] (IANBD conjugate) is given as 0.7; in assay [7] (acrylodan conjugate), 1.0.

As to “W183A: GBP single mutant constructed in the allosterically signaling construct 255C”, in assay [1] (setting [18]), the Kd is 20 µM.

Regarding “W183AY10A: GBP double mutant constructed in the allosterically signaling construct 255C”, in assay [1] (setting [18]), the Kd came out at 650 µM.

Turning to “Wild-type: wild type E. coli Glucose/Galactose Binding Protein (GBP) [reference compound]”, the Kd in [1] (wild type GBP, read-out: Kd (glucose)) was found to be 0.8 µM; in assay [2], 90 µM; in [9] it was 1400 µM; in assay [5] it was 340 µM; in assay [6], 4700 µM; in [10], 1300 µM. Further, the Kd in [3] was determined as 105 µM; in assay [4] (setting [12]) it was 2.4 µM; in assay [8], 400 µM.

For the substance “Y10A D154A: E. coli GBP binding-site double mutant”, the Kd in assay [1] (setting [11]) worked out at 1050 µM; in assay [4] (setting [12]), 4400 µM.

“Y10A: E. coli GBP binding-site mutant, constructed in the 255C construct”: the Kd in assay [1] (setting [11]) turned out to be 54 µM; in [1] (setting [18]) it was 50 µM; in assay [2] it was 2700 µM; in [6], 22000 µM; in assay [3], 7100 µM; in assay [4] (setting [12]), 180 µM.

As to “acrylodan conjugate at position 255: acrylodan conjugate of the L255C GBP mutant, best allosteric signal transducer in the hinge region”, the “decrease in fluorescence upon ligand binding” value in assay [7] (acrylodan conjugate) came out at 2 fold.
